# Values of other authors, collected in patent US20200368373A1, “OPTICAL IMAGING AGENTS TARGETING INFLAMMATION” (SORBONNE UNIVERSITE, priority 2018, published 2020).
# Target: T1, selectin E (Mus musculus, UniProt Q00690)
# T1 sequence (Q00690 22-612): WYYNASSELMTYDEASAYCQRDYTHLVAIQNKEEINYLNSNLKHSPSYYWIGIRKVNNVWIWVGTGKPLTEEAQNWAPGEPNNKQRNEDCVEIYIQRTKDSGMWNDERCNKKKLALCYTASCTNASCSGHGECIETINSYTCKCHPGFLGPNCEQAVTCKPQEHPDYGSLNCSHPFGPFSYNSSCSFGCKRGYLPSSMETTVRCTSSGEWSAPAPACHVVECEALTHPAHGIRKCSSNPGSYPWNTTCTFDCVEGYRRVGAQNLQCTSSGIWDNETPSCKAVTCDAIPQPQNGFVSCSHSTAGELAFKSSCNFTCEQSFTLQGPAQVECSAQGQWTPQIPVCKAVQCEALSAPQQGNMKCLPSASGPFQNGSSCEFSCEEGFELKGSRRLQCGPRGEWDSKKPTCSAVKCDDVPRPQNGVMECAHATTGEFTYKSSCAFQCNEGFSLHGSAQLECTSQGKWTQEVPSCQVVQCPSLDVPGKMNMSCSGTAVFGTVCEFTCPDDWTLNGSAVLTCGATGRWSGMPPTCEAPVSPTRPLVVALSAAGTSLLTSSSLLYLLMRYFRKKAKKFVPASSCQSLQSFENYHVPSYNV
# Conditions: known in the art
substance,measurement,value
Sialyl Lewis X,affinity for selectin E,high affinity
